This note sets out measurements from paper doi:10.1101/2023.03.24.534094v2 (biorxiv, 2023).

SMILES strings stand for the structures. Where two headings read alike, the source gives them in different places.

The target in test [1] is T1, PAK1 (Homo sapiens, UniProt Q13153). As to the kind of experiment: biochemical.
Test [2] has as its target T2, MST3 (Homo sapiens, UniProt Q9Y6E0). As to the kind of experiment: biochemical.
In another test the target is Wnk1 (Homo sapiens, UniProt Q9H4A3). Briefly: biochemical.
Chain of Wnk1 (Q9H4A3 whole entry): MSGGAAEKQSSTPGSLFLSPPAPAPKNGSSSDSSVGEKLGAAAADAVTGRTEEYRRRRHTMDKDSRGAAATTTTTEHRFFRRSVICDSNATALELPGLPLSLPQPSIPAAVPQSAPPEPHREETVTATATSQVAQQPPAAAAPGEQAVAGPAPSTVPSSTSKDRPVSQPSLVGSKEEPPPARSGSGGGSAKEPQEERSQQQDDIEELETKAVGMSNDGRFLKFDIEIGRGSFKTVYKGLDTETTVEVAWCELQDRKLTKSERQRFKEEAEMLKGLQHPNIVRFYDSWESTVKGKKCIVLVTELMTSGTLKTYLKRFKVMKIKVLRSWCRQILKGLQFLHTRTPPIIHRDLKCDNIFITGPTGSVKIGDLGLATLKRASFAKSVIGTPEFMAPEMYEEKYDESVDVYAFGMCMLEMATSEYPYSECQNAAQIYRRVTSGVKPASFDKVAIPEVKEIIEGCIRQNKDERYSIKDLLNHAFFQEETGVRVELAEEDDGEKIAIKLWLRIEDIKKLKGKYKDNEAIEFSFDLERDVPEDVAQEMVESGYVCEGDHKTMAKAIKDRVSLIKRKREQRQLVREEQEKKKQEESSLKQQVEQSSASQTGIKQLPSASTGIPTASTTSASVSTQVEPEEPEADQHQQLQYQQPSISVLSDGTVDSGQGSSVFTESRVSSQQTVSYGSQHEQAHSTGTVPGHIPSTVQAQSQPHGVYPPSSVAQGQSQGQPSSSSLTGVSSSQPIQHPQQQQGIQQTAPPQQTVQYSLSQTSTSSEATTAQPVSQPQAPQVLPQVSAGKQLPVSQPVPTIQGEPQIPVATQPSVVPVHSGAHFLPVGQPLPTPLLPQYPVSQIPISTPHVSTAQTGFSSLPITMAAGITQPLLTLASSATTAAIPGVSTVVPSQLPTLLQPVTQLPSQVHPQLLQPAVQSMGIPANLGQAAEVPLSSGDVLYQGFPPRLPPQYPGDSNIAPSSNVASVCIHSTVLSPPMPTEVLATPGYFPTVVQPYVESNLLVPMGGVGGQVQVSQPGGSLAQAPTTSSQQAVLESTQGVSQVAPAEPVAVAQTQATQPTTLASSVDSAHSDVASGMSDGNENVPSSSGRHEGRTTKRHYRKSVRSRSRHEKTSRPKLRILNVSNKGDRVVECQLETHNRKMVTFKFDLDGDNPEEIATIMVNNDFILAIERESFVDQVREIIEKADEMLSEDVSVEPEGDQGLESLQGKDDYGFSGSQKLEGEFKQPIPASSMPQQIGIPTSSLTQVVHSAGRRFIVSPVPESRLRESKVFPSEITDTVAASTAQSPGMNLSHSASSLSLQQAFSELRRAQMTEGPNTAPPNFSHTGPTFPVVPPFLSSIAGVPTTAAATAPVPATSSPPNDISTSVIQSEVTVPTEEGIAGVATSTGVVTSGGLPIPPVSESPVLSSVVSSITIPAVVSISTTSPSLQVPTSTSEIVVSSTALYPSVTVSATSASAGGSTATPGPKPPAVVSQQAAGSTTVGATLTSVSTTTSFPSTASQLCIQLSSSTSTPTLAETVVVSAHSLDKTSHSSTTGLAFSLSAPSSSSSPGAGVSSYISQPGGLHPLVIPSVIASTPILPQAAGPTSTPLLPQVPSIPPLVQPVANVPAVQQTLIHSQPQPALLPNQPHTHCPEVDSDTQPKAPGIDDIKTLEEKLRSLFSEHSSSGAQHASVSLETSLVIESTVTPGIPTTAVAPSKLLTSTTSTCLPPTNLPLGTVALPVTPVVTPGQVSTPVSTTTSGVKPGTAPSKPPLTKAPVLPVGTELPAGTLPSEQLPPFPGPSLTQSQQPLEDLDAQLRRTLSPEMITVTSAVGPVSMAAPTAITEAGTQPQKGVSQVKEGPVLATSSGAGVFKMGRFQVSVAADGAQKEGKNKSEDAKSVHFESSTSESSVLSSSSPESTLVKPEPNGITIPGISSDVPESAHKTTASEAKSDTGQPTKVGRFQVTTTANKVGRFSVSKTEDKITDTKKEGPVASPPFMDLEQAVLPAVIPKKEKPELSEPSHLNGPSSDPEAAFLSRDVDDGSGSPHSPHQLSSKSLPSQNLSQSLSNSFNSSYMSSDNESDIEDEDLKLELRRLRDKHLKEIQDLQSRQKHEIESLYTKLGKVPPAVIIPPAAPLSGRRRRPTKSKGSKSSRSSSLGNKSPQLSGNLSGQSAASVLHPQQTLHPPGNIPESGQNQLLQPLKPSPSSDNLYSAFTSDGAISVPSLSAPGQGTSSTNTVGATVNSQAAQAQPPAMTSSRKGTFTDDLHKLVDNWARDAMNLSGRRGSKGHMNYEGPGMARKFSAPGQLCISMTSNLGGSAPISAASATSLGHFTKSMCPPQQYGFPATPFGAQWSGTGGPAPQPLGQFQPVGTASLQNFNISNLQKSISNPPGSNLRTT
Test [3] deals with T3, MST1 (Homo sapiens, UniProt Q13043).
T3 sequence (Q13043 1-487): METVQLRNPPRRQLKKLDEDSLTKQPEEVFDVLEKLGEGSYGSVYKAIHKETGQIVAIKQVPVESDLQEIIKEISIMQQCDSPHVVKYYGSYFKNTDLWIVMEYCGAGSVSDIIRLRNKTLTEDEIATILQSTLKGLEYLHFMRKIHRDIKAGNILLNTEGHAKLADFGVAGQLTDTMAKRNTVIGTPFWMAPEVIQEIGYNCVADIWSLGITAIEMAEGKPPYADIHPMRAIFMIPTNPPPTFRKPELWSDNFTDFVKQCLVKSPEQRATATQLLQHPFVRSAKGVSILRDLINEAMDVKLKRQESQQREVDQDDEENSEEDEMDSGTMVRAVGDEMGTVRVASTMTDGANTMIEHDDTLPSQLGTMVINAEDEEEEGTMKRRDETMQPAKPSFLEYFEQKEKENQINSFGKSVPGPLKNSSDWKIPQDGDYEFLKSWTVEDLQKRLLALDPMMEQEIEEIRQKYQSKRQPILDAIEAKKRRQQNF
Briefly: biochemical.

For test [4], the target named is T3, MST1. As to the kind of experiment: biochemical. Conditions: for ΔTm at 10 µM: read-out: dTm MST1.
For the next test, the target named is T4, MST2 (Homo sapiens, UniProt Q13188).
T4 sequence (Q13188 1-491): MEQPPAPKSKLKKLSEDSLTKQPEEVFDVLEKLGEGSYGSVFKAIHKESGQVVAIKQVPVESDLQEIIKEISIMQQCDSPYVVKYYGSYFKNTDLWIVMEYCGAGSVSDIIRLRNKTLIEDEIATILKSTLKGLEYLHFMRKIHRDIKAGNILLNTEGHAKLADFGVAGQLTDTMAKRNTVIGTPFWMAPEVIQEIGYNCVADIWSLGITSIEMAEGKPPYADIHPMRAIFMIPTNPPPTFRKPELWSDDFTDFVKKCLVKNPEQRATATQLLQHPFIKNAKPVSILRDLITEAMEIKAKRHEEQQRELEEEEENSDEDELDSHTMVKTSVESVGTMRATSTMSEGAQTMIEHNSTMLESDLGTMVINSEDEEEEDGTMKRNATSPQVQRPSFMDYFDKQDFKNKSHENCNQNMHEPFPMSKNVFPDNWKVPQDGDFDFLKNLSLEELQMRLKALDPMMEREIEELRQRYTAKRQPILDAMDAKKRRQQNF
Briefly: biochemical. Particulars: for ΔTm at 10 µM: read-out: dTm MST2.

The next test deals with MST4 (Homo sapiens, UniProt Q9P289). Briefly: biochemical. Particulars: for ΔTm at 10 µM: read-out: dTm MST4.
Chain of MST4 (Q9P289 whole entry): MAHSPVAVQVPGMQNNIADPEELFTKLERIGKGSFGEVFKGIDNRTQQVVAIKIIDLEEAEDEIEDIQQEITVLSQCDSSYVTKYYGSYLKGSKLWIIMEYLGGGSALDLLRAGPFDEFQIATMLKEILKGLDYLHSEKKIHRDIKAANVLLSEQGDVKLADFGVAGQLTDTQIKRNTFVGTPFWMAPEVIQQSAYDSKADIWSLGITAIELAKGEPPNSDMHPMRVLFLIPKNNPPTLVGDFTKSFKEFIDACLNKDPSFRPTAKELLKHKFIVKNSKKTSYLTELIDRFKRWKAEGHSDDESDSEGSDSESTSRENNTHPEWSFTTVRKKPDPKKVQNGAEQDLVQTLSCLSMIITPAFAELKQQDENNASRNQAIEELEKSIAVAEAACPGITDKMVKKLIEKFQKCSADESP
A further test deals with SIK1 (Homo sapiens, UniProt P57059). As to the kind of experiment: NanoBRET target engagement. The class given is biochemical. Particulars: lysed mode, HEK293T, tracer displacement.
A further test addresses SIK3 (Homo sapiens, UniProt Q9Y2K2). Briefly: NanoBRET target engagement. The class given is cell-based. Particulars: intact mode, HEK293T, 37 °C, 2 h, tracer displacement. For orientation: In BRET a luciferase serves as donor, and the signal depends on an acceptor being close.
A further test has as its target SIK2 (Homo sapiens, UniProt Q9H0K1). As to the kind of experiment: NanoBRET target engagement. The test is classed as cell-based. Conditions: intact mode, HEK293T, 37 °C, 2 h, tracer displacement.
The target of test [5] is T1, PAK1. Briefly: biochemical. The source holds these as a separate data set.
In test [6] the target is T2, MST3. Briefly: biochemical. The source holds these as a separate data set.

T2 sequence (Q9Y6E0 whole entry): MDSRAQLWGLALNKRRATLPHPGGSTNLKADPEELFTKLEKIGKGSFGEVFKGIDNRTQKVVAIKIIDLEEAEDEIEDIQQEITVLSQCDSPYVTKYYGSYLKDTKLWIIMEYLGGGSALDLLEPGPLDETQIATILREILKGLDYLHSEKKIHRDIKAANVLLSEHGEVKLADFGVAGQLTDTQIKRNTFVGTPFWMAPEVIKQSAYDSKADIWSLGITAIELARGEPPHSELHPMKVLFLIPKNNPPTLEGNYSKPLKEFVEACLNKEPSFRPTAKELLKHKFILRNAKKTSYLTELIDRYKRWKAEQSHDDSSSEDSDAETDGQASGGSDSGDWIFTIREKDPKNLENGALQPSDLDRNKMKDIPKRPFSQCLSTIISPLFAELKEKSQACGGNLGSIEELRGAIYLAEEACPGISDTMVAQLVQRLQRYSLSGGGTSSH
Chain of SIK2 (Q9H0K1 whole entry): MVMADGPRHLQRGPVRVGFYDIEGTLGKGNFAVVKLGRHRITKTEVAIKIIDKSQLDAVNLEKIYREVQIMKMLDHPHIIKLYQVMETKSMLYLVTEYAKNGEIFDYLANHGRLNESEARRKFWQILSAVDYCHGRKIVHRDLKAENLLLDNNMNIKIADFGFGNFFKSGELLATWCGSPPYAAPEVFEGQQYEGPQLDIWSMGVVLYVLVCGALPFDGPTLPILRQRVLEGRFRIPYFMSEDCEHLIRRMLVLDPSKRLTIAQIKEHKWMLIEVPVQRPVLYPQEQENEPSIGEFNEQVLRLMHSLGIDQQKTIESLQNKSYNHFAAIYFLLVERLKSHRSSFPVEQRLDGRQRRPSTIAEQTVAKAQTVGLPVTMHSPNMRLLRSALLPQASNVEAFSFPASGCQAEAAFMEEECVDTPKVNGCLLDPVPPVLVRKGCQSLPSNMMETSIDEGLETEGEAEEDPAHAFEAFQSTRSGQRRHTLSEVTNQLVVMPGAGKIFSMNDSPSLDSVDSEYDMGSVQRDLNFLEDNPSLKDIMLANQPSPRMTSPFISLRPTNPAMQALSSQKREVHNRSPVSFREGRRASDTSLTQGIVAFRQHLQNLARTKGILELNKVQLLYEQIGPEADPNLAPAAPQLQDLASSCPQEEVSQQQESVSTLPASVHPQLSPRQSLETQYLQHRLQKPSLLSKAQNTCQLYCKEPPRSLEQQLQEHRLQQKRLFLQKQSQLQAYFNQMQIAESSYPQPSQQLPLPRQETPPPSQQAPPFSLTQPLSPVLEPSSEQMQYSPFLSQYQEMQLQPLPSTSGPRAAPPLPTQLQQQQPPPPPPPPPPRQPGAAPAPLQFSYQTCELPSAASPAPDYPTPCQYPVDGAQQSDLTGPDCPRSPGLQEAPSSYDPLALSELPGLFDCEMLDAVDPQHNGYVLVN
T1 sequence (Q13153 whole entry): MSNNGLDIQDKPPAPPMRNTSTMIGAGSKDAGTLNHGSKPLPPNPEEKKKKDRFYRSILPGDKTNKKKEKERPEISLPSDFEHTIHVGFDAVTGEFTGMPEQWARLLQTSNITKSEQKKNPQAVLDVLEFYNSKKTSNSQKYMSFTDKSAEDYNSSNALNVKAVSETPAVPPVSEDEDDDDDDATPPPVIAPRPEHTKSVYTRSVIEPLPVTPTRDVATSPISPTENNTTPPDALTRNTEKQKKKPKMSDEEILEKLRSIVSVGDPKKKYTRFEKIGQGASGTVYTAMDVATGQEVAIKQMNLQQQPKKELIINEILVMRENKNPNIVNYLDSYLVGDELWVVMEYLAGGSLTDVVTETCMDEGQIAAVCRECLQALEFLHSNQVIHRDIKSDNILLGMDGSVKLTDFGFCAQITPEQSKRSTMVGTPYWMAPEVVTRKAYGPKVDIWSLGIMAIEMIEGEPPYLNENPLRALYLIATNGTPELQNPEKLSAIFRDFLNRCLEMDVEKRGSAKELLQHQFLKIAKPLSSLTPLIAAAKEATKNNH

`CNc1ncc2cc(-c3ccc(-c4cccc(C)n4)cc3Cl)c(=O)n(CC3OCC(N)CO3)c2n1` (stereo not shown) [compound 2, G-5555]: the “∆Tm G-5555 (2)” value came out at 6.4 degC on PAK1 [1] (10 µM, binder); 7.5 degC on MST3 [2] (10 µM, binder); 2.4 degC at Wnk1 (10 µM, binder); 4.5 degC on MST1 [3] (10 µM, binder). The “dTm MST1” value on MST1 [4] (10 µM, binder) is 4.2 °C. The “dTm MST2” value on MST2 (10 µM, binder) was determined as 5.0 °C. For the same compound, the “dTm MST4” value on MST4 (10 µM, binder) is 6.4 °C.
One may read the IC50 as the concentration that gives 50% inhibition. Consider `CNc1ncc2cc(-c3cc(Br)ccc3Cl)c(=O)n(C[C@H]3OC[C@H](N)CO3)c2n1` [compound 7, 8-(((2r,5r)-5-Amino-1,3-dioxan-2-yl)methyl)-6-(5-bromo-2-chlorophenyl)-2-(methylamino)pyrido[2,3-d]pyrimidin-7(8H)-one], for which the ΔTm at 10 µM at PAK1 [1] (read-out: ∆Tm 7) was found to be 0.6 °C; at MST3 [2] (read-out: ∆Tm 7), 0.8 °C; on Wnk1 (read-out: ∆Tm 7), 1.1 °C; at MST1 [4], 1.7 °C; at MST2, 1.5 °C; at MST4, 0.6 °C. Moreover, the IC50 on SIK1 was determined as 2.4 ± 1.1 µM; on SIK3, 1 ± 0.3 µM; on SIK2 it was 4.4 ± 0.1 µM.
On to `CNc1ncc2cc(-c3cc(Br)ccc3Cl)c(=O)n(CCCCN)c2n1` [compound 6, 8-(4-Aminobutyl)-6-(5-bromo-2-chlorophenyl)-2-(methylamino)pyrido[2,3-d]pyrimidin-7(8H)-one], for which the ΔTm at 10 µM at MST3 [2] (read-out: ∆Tm 6) is 2.7 °C; at Wnk1 (read-out: ∆Tm 6), 0 °C; at MST1 [4] it was 1.9 °C; at MST2, 2.5 °C; on MST4, 2.2 °C. For the same compound, the figures for the half-maximal inhibitory concentration (IC50) on SIK1, at SIK3 and at SIK2 were 0.239 ± 0.046 µM, 0.352 ± 0.011 µM and 1.4 ± 0.1 µM, respectively.
For `CNc1ncc2cc(-c3cc(Cl)ccc3Cl)c(=O)n(CCCCN)c2n1` [compound 8, 8-(4-Aminobutyl)-6-(2,5-dichlorophenyl)-2-(methylamino)pyrido[2,3-d]pyrimidin-7(8H)-one], the ΔTm at 10 µM at MST1 [4] was 1.6 °C; at PAK1 [5] (read-out: ∆Tm 8), 0.7 °C; on MST3 [6] (read-out: ∆Tm 8), 1.9 °C; on MST2, 1.4 °C; on MST4, 2 °C. Further, the IC50 was 0.277 ± 0.123 µM at SIK1, 0.113 ± 0.095 µM on SIK3 and 0.665 ± 0.04 µM on SIK2.
For `CNc1ncc2cc(-c3ccccc3Cl)c(=O)n(CCCCN)c2n1` [compound 4, 8-(4-Aminobutyl)-6-(2-chlorophenyl)-2-(methylamino)pyrido[2,3-d]pyrimidin-7(8H)-one], the ΔTm at 10 µM was 1.6 °C on PAK1 [1] (read-out: ∆Tm MR21 (4)); 4.1 °C on MST3 [2] (read-out: ∆Tm MR21 (4)); -0.4 °C on Wnk1 (read-out: ∆Tm MR21 (4)); 1.5 °C on MST1 [3] (read-out: ∆Tm MR21 (4)); 1.9 °C on MST1 [4]; 2.2 °C on MST2. Further, the ΔTm at 10 µM at MST4 was found to be 2.6 °C. Moreover, the IC50 on SIK1 stood at 0.02 ± 0.007 µM; on SIK3, 0.025 ± 0.003 µM; at SIK2 it was 0.074 ± 0.002 µM.
For `CNc1ncc2cc(-c3cc(Br)ccc3Br)c(=O)n(CCCCN)c2n1` [compound 11, 8-(4-Aminobutyl)-6-(2,5-dibromophenyl)-2-(methylamino)pyrido[2,3-d]pyrimidin-7(8H)-one], the ΔTm at 10 µM at MST1 [4] worked out at 1.6 °C; on PAK1 [5] (read-out: ∆Tm 11), 0.7 °C; at MST3 [6] (read-out: ∆Tm 11), 1.9 °C; on MST2, 1.4 °C; on MST4, 1.5 °C. For the same compound, the results for the IC50 at SIK1, on SIK3 and at SIK2 were 0.429 ± 0.117 µM, 1.2 ± 0.1 µM and 2.7 ± 0.1 µM, respectively.
For the compound `CNc1ncc2cc(-c3cc(F)ccc3F)c(=O)n(CCCCN)c2n1` [compound 5, 8-(4-Aminobutyl)-6-(2,5-difluorophenyl)-2-(methylamino)pyrido[2,3-d]pyrimidin-7(8H)-one], the ΔTm at 10 µM on MST3 [2] (read-out: ∆Tm MR22 (5)) was 1.6 °C; on Wnk1 (read-out: ∆Tm MR22 (5)), -0.1 °C; on MST1 [3] (read-out: ∆Tm MR22 (5)) it was -0.3 °C; on MST1 [4], 0.9 °C; at MST2 it was 0.6 °C; at MST4, 0.9 °C. Also, the IC50 on SIK1 was determined as 0.072 ± 0.011 µM; at SIK3, 0.018 ± 0.002 µM; at SIK2, 0.089 ± 0.002 µM.
As for `CNc1ncc2cc(-c3cc(C(F)(F)F)ccc3Cl)c(=O)n(CCCCN)c2n1` [compound 9, 8-(4-Aminobutyl)-6-(2-chloro-5-(trifluoromethyl)phenyl)-2-(methylamino)pyrido[2,3-d]pyrimidin-7(8H)-one], the ΔTm at 10 µM on MST1 [4] was determined as 0.9 °C; at MST2, 0.8 °C; at MST4 it was 0.4 °C. In addition, the concentration for half-maximal inhibition (IC50) at SIK1 stood at 1 ± 0.4 µM; on SIK3, 2.5 ± 0.1 µM; on SIK2, 6.1 ± 0.1 µM.
For `CNc1ncc2cc(-c3cc(F)c(-c4cccc(C)n4)cc3F)c(=O)n(CCCCN)c2n1` [compound 12, 8-(4-Aminobutyl)-6-(2,5-difluoro-4-(6-methylpyridin-2-yl)phenyl)-2-(methylamino)pyrido[2,3-d]pyrimidin-7(8H)-one], the values for the ΔTm at 10 µM at MST1 [4], on MST2 and on MST4 were 2.8 °C, 5.2 °C and 7.6 °C, respectively. The concentration for half-maximal inhibition (IC50) on SIK1 worked out at 0.006 ± 0.002 µM; on SIK3, 0.004 ± 0.0001 µM; on SIK2, 0.031 ± 0.001 µM.
As to `CNc1ncc2cc(-c3cc(Cl)ccc3Br)c(=O)n(CCCCN)c2n1` [compound 10, 8-(4-Aminobutyl)-6-(2-bromo-5-chlorophenyl)-2-(methylamino)pyrido[2,3-d]pyrimidin-7(8H)-one], the ΔTm at 10 µM was determined as 1.5 °C at MST1 [4]; 0.6 °C on PAK1 [5] (read-out: ∆Tm 10); 2 °C on MST3 [6] (read-out: ∆Tm 10); 1.4 °C at MST2; 1.8 °C at MST4. Also, the 50% inhibitory concentration (IC50) came to 0.228 ± 0.142 µM at SIK1, 0.29 ± 0.042 µM on SIK3 and 1.1 ± 0.1 µM on SIK2.
